Source: PubChem BioAssay (NCI)
Several values for one entry are separate records, joined by “and”; a condition that tells them apart may be missing. Identical values can stand only once.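 Exposure lasted 48 hours, with cells grown in 96-well plates and compounds tested at five concentrations. Abbreviation: GI50, concentration required for 50% inhibition of growth. TGI is the concentration that stops growth completely.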

Legend:
Experiment in all cases: growth of human tumour cells (NCI), 48 h
UACC-257 melanoma = tested on: UACC-257 melanoma
SF-295 CNS = tested on: SF-295 CNS
HCC-2998 colon = tested on: HCC-2998 colon
NCI-H460 lung = tested on: NCI-H460 lung
SF-268 CNS = tested on: SF-268 CNS
NCI-H226 lung = tested on: NCI-H226 lung
OVCAR-8 ovarian = tested on: OVCAR-8 ovarian
IGROV1 ovarian = tested on: IGROV1 ovarian
HOP-62 NSCLC = tested on: HOP-62 NSCLC
U251 CNS = tested on: U251 CNS

| SMILES | GI50 (UACC-257 melanoma) | TGI (UACC-257 melanoma) | GI50 (SF-295 CNS) | TGI (SF-295 CNS) | GI50 (HCC-2998 colon) | TGI (HCC-2998 colon) | GI50 (NCI-H460 lung) | GI50 (SF-268 CNS) | GI50 (NCI-H226 lung) | GI50 (OVCAR-8 ovarian) | GI50 (IGROV1 ovarian) | GI50 (HOP-62 NSCLC) | TGI (HOP-62 NSCLC) [µM] | GI50 (U251 CNS) | TGI (U251 CNS) | TGI (NCI-H460 lung) [µM] | TGI (SF-268 CNS) [µM] | TGI (NCI-H226 lung) [µM] | TGI (OVCAR-8 ovarian) [µM] | TGI (IGROV1 ovarian) [µM] |
| --- | --- | --- | --- | --- | --- | --- | --- | --- | --- | --- | --- | --- | --- | --- | --- | --- | --- | --- | --- | --- |
| C[C@@H]1COCCN1c1cc(-c2ccnn2C)c2ccnc(-c3ccn[nH]3)c2n1 | 0.264 µM and 0.721 µM | 2.81 µM and 6.9 µM | 0.057 µM and 0.11 µM | 0.648 µM and 1.15 µM | 0.0277 µM and 0.0581 µM | 18.6 µM and > 100 µM | 0.0561 µM and 0.128 µM | 0.238 µM and 0.449 µM | 0.241 µM and 0.474 µM | 0.17 µM and 0.415 µM | 0.0715 µM and 0.195 µM | 0.112 µM and 0.216 µM | 1.94 | 0.26 µM and 1 µM | 14.6 µM and > 100 µM |  |  |  |  |  |
| COc1cc(/C=C/[N+](=O)[O-])cc(OC)c1OC | 2.46 µM | 9.83 µM | 8.52 µM | 23.8 µM | 1.82 µM | 3.31 µM | 3.36 µM | 4.39 µM | 2.1 µM | 3.04 µM | 2.45 µM | 3.34 µM | 13.6 | 2.86 µM | 10.9 µM | 12.4 | 15.2 | 5.5 | 12.1 | 7.61 |
| CCN(C(=O)CN1CCN(c2cc3c(cc2F)c(=O)c(C(=O)O)cn3CC)CC1)c1nc(-c2ccccc2)cs1 | 0.307 µM | 1.55 µM | 0.235 µM | 0.746 µM | 0.402 µM | > 100 µM | 0.394 µM | 0.43 µM | 0.477 µM | 0.364 µM | 0.419 µM | 0.345 µM | > 100 | 0.354 µM | > 100 µM | > 100 | > 100 | > 100 | > 100 | > 100 |
| CCC[CH2][Sn]([CH2]CCC)([O]C(=O)/C=C/c1ccccc1F)[O]C(=O)/C=C/c1ccccc1F | 0.465 µM | 1.76 µM | 1.43 µM | 2.78 µM | 1.06 µM | 2.29 µM | 1.64 µM | 0.526 µM | 0.775 µM | 0.98 µM | 0.585 µM | 2.12 µM | 4.71 | 0.511 µM | 1.41 µM | 3.37 | 1.84 | 2.04 | 2.2 | 1.66 |
